Test results as given in paper PMC9295539 (Antimicrobial Agents and Chemotherapy, 2022).
“Also recorded” adds a separate entry of the source. Like-named read-outs stand apart in the source and are kept apart here. Blank lines part the entries; values can stand above or below the molecule they belong to.

Tests used:
[1] = system: Giardia lamblia GS clone H7; assay: G. lamblia GS clone H7 trophozoite growth, ATP-based bioluminescence assay (BacTiter-Glo), 1,536-well; format: cell-based; conditions: for Selectivity index (CC50/EC50): HEK293T CC50 / G. lamblia GS clone H7 EC50
Protocol: (§1) Compounds were screened at 5 μM with metronidazole (40 μM) as an inhibitor control and dimethyl sulfoxide (DMSO) as a neutral control. […] These primary hits were immediately assayed for reconfirmation and mammalian cytotoxicity against HEK293T cells in an 8-point dose-response format.
The primary screen was conducted at 5 μM. […] All source plates were 384-well acoustic, transfer-compatible plates with compounds prediluted in DMSO at either 2 mM or 10 mM. […] Primary screening was done with a single replicate, whereas dose-response testing was carried out in triplicate.
To prevent attachment to the bottle and tubing of the dispenser cassette, the bottle containing the culture was kept on ice throughout the dispensing process. […] The bags were heat sealed and the anaerobic generator was activated according to the manufacturer’s instructions. […] Luminescence was read on a ViewLux uHTS microplate imager (PerkinElmer) with medium-sensitivity luminescence at 30 s of exposure.
(§2) Relative luminescence unit (RLU) values were analyzed in Genedata Screener (v13.0-Standard). RLU values were normalized to neutral controls minus inhibitors (DMSO-treated wells minus metronidazole-treated wells). For single-point primary assay plates, an additional run-wise median correction was applied to reduce screen artifacts, whereas no corrections were applied to triplicate dose-response plates. For the mammalian cytotoxicity assays, RLU values were uploaded into Genedata Screener, and the data were normalized to those for DMSO-treated wells minus puromycin-treated wells.

[2] = system: HEK293T cells; assay: in vitro
Protocol: as §1
(§3) Experimental details for the assays were described previously ([50]). […] Assays were performed as previously reported ([51]).
as §2

[3] = Allometric scaling of efficacious mouse doses to human-equivalent dose; conditions: 150 mg human dose (2.6 to 1.9 mg/kg) versus predicted human efficacious dose
Protocol: Its chemical synthesis and safety profiles and a partial analysis of its pharmacokinetic properties have been described previously ([18], [43]). […] Given that the average adult weight worldwide ranges from 57.7 kg in Asia to 80.7 kg in North America ([46]), a 150 mg dose equates to 2.6 to 1.9 mg/kg. […]. This leaves a possible safety window of 4.6 to 13 times the efficacious dose, depending on the dose needed and the weight of the adult patient. Since the equivalent human efficacious dose (based on the murine efficacy data) is below the clinical trial threshold and the drug may not necessitate more than 7 daily doses, it could be speculated that all previously obtained good laboratory practices (GLP) toxicological data associated with the Phase I clinical trials remain relevant and may not need to be repeated. […] Reduced cost of development should have a direct impact on the cost of goods for the target population. This is certainly true for G. lamblia.

[4] = Clinical evaluation of overall health of mice in PK and efficacy studies; conditions: all mice used for in vivo PK and efficacy studies
[5] = system: metronidazole-resistant 713-M3 strain; assay: Metronidazole-resistant G. lamblia 713-M3 cell growth inhibition assay; format: cell-based; conditions: Giardia duodenalis, read-out: EC50 against G. lamblia strain 713-M3
[6] = CRL-8155 cytotoxicity, resazurin-based viability assay; format: cell-based; conditions: human, CRL-8155 lymphocytic cells; read-out: CC50 against CRL-8155 cells
Protocol: as §3

[7] = HepG2 cytotoxicity, resazurin-based viability assay; format: cell-based; conditions: human, HepG2 cells; read-out: CC50 against HepG2 cells
Protocol: as §3

[8] = set-up: method as in doi:10.1016/j.jtho.2016.11.1668; conditions: adults; >150 mg daily oral doses over 7 days; cited from earlier work
[9] = system: G. lamblia WB6 (assemblage A); assay: G. lamblia WB6 cell growth inhibition assay; format: cell-based; conditions: Giardia duodenalis, read-out: EC50 against G. lamblia strain WB6
[10] = system: G. lamblia CBG99; conditions: mice
Protocol: The method relies on a stable constitutive reporter, CBG99, that correlates with total parasite load.
(§4) In vitro reconfirmation and expanded tests against EGFR-TKIs using the G. lamblia CBG99 strain were performed as previously described ([11]). […] The PK studies were performed in groups of 3 mice per compound. […] All animal experiments were approved by the Institutional Animal Care and Use Committees at the University of Washington.

[11] = HEK293T cytotoxicity counterscreen, luminescent ATP viability assay; conditions: human
Protocol: as §1, §3, §2

[12] = Mouse pharmacokinetics, oral gavage, plasma LC-MS/MS; format: in vivo; conditions: for half-life: read-out: average half-life (t1/2); for plasma level: 1 mg/kg QD
[13] = system: G. lamblia CBG99 (assemblage A); assay: G. lamblia CBG99 luciferase strain cell growth inhibition assay; format: cell-based, Giardia lamblia; conditions: Giardia duodenalis; for EC50: assemblage A, read-out: EC50 against G. lamblia strain CBG99; for inhibition at 5 µM: G. lamblia CBG99, compound at 5 μM
Protocol: Subsequent assays, including the mouse model of infection, used the G. lamblia click beetle green (CBG99) strain, which was grown and assayed as previously described ([11], [49]).
as §4

[14] = 48 h, 8-point dose response, triplicate, read-out: 48-h Giardia GS clone H7 EC50
[15] = Giardia duodenalis, 48 h, 8-point dose response, triplicate, read-out: 48-h Giardia GS clone H7 EC50
[16] = Giardia duodenalis, Table 2, assemblage B, read-out: EC50 against G. lamblia strain GS clone 7
[17] = mouse, single oral dose 5 mg/kg
[18] = mouse, single oral dose 20 mg/kg
[19] = mouse, single oral dose 50 mg/kg

EC50 [1, 14]: 1.08 ± 0.02 µM
Compound: Cn1c([N+](=O)[O-])cnc1C(O)c1cc(C(C)(C)C)ccc1O (stereo not drawn) [Abunidazole]
CC50 [2]: > 25 µM

Compound: C=CC(=O)N[C@@H]1CN(c2nc(Nc3cn(C)nc3OC)c3ncn(C)c3n2)C[C@H]1F [Mavelertinib, N-((3R,4R)-4-fluoro-1–(6-((3-methoxy-1-methyl-1H-pyrazol-4-yl)amino)-9-methyl-9H-purin-2-yl)pyrrolidine-3-yl)acrylamide]
possible safety window [3]: 4.6 to 13 times the efficacious dose | observable toxicity [4]: no observable mavelertinib-induced toxicology potentials | EC50 [5]: 0.07 ± 0.02 µM | CC50 [6]: > 80 µM | CC50 [7]: > 80 µM | EC50 [1, 15]: 2.34 ± 0.08 µM | EC50 [1, 16]: 2.34 ± 0.08 µM | most common adverse events [8]: diarrhea and skin toxicities | EC50 ([9]; assemblage A): 0.27 ± 0.17 µM | clearance of infection (luminescence signal) ([10]; 2.5 mg/kg QD for 2 days): one of four mice remained infected | clearance of infection (luminescence signal) ([10]; 5 mg/kg QD for 2 days, 5 mg/kg): cleared the infection below the background signal | clearance of infection (luminescence signal) ([10]; 5 mg/kg QD for 2 days, listed as mavelertinib, 5 mg/kg): absence of luminescence signal | clearance of infection (luminescence signal) ([10]; 20 mg/kg QD for 2 days, 20 mg/kg): cleared the infection below the background signal | clearance of infection (luminescence signal) ([10]; 20 mg/kg QD for 2 days, listed as mavelertinib, 20 mg/kg): absence of luminescence signal | clearance of infection (luminescence signal) ([10]; 50 mg/kg QD for 1 day, dose-response experiment, 50 mg/kg): cleared the infection below the background signal | clearance of infection (luminescence signal) ([10]; 50 mg/kg QD for 1 day, dose-response experiment, listed as mavelertinib, 50 mg/kg): absence of luminescence signal | clearance of infection ([10]; 50 mg/kg QD for 3 days, data not shown): appeared to clear the infection | clearance of infection ([10]; 50 mg/kg QD, 1- and 2-day dosing, remained clear a week after dosing): all treated mice were cleared of infection | parasite rebound after treatment ([10]; about 1 week after the last therapeutic dose): parasites did not rebound | CC50 at 72 h ([11]; HEK293T cells): > 25 µM | half-life ([12]; in vivo, mouse, single oral dose 5 mg/kg): 3.99 h | plasma trough levels ([12]; infected mice, all treatment groups, days 6 and 7 postinfection (24 h and 48 h after the first dose)): below the limit of quantitation | plasma level ([12]; mouse, 0.5 h postdose, one mouse): barely detectable | plasma level ([12]; mouse, all time points after 0.5 h): below the limit of detection | plasma level ([12]; mouse, all time points sampled (Fig. 4 legend)): barely detectable | time at which Cmax was observed (Tmax) ([12]; mouse, oral, in all cases (all doses)): 0.5 h | plasma concentration at 24 h postdose ([12]; mouse, single dose, all dosage groups): cleared from plasma; also recorded: below the detection limit | area under the curve (AUC) [12, 17]: 89 µmol·min/L | clearance [12, 17]: 0.015 L/min | area under the curve (AUC) [12, 18]: 300 µmol·min/L | clearance [12, 18]: 0.004 L/min | area under the curve (AUC) [12, 19]: 812 µmol·min/L | clearance [12, 19]: 0.0016 L/min | Cmax ([12]; plasma, mouse, single oral dose 5 mg/kg, read-out: maximum plasma concentration (Cmax)): 0.63 µM | half-life ([12]; plasma, mouse, single oral dose 20 mg/kg): 2.91 h | Cmax ([12]; plasma, mouse, single oral dose 20 mg/kg, read-out: maximum plasma concentration (Cmax)): 3.5 µM | half-life ([12]; plasma, mouse, single oral dose 50 mg/kg): 2.09 h | Cmax ([12]; plasma, mouse, single oral dose 50 mg/kg, read-out: average maximum plasma concentration (Cmax)): 9.3 µM

Compound: Cc1ncc([N+](=O)[O-])n1CCO [Metronidazole]
EC50 [13]: 2.87 ± 0.34 µM | EC50 [5]: > 25 µM | EC50 [1, 15]: 7.12 ± 0.06 µM | EC50 [1, 16]: 7.12 ± 0.06 µM | Selectivity index (CC50/EC50) [1]: >3 | EC50 ([9]; assemblage A): 2.33 ± 0.06 µM | CC50 at 72 h [11]: > 25 µM

Compound: CC(=O)C[C@H]1CCCCN1 [Pelletierine]
EC50 [13]: > 25 µM | EC50 [5]: > 25 µM | EC50 [1, 15]: 20.3 ± 0.07 µM | EC50 [1, 16]: 20.3 ± 0.07 µM | Selectivity index (CC50/EC50) [1]: >1 | EC50 [9]: > 25 µM | CC50 [11]: > 25 µM

EC50 [1, 14]: 2.55 ± 0.04 µM
Compound: CCOC(=O)/C(=C/c1ncc([N+](=O)[O-])n1C)C(C)=O [Propenidazole]
CC50 [2]: 16.9 ± 0.05 µM

Compound: C#Cc1cccc(Nc2ncnc3cc(OCCOC)c(OCCOC)cc23)c1 [erlotinib]
inhibition at 5 µM [13]: ≤ 50%

Compound: CS(=O)(=O)CCNCc1ccc(-c2ccc3ncnc(Nc4ccc(OCc5cccc(F)c5)c(Cl)c4)c3c2)o1 [lapatinib ditosylate]
inhibition at 5 µM [13]: ≤ 50%

Compound: CCOc1cc2ncc(C#N)c(Nc3ccc(OCc4ccccn4)c(Cl)c3)c2cc1NC(=O)/C=C/CN(C)C [neratinib]
inhibition at 5 µM [13]: ≤ 50%

Compound: C=CC(=O)Nc1cccc(Nc2nc(Nc3ccc(N4CCN(C(C)=O)CC4)cc3OC)ncc2C(F)(F)F)c1 [rociletinib]
inhibition at 5 µM [13]: ≤ 50%
